These results are taken from patent US8026282B2, “Phenoxyalkylcarboxylic acid derivatives in the treatment of irritable bowel syndrome” (Medicinova, Inc., priority 2004, dated 2011).

One experiment deals with PDE2 (Homo sapiens, UniProt O00408). In words: Biochemical assay PDE2. Conditions: PDE2, Hu.
The test system of the next experiment is PDE4. In words: Biochemical assay PDE4. The settings on record: PDE4, Hu.
For another experiment, the target named is PDE5 (Homo sapiens, UniProt O76074). Nature of the experiment: Biochemical assay PDE5. Conditions: PDE5, Hu.
Another experiment has as its target T1, PDE6 (Bos taurus, UniProt P11541+P23439).
T1 sequence (P11541 1-859): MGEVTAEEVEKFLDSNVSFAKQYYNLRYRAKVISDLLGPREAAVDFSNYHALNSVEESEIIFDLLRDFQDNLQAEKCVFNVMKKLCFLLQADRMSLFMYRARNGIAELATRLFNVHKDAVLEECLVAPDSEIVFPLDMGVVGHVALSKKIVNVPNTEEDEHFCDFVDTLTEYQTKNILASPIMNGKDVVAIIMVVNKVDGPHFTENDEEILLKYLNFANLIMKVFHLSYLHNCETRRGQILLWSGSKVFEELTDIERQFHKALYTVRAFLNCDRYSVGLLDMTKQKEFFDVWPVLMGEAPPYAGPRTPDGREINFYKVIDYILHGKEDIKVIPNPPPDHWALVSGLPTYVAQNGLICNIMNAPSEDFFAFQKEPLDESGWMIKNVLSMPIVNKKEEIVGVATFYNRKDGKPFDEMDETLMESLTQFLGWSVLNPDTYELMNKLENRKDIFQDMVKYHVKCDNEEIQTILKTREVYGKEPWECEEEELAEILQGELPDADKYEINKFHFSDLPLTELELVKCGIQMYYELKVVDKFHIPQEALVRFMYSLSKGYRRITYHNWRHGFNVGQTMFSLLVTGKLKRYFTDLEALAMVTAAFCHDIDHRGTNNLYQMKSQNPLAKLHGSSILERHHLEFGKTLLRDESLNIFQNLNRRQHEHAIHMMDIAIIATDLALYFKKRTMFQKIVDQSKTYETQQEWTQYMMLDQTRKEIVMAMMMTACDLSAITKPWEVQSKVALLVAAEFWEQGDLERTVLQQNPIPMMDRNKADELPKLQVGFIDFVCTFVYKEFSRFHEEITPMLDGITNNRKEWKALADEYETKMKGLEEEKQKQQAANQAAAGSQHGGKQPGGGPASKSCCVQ
T1 sequence (P23439 1-853): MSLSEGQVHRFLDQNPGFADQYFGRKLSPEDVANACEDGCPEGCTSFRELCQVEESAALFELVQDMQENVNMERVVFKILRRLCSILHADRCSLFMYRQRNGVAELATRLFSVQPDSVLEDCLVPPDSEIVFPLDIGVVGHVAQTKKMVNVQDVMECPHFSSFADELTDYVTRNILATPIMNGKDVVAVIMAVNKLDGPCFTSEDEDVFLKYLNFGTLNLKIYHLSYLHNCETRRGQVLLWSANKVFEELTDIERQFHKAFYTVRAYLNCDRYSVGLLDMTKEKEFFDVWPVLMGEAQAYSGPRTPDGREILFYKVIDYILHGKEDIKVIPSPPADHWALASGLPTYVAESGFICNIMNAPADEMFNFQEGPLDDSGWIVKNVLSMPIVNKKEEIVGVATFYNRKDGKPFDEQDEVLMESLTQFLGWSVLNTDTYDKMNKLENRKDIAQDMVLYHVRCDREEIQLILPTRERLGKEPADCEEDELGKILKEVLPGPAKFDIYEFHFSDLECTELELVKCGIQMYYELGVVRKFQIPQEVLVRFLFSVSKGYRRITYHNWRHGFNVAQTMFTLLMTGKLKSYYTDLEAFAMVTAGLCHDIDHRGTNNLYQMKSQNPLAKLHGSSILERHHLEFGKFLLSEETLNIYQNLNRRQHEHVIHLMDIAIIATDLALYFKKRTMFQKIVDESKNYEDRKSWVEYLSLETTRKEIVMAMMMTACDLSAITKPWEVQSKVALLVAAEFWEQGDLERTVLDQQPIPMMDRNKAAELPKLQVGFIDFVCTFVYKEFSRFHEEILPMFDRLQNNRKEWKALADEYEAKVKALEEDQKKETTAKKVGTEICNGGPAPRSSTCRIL
In words: Biochemical assay PDE6. Conditions: PDE6, Bov.

The target in a further experiment is PLA2-I (Sus scrofa, UniProt P00592). Nature of the experiment: Biochemical assay PLA2-I. The settings on record: Pig.
PLA2-I, sequence (P00592 23-146): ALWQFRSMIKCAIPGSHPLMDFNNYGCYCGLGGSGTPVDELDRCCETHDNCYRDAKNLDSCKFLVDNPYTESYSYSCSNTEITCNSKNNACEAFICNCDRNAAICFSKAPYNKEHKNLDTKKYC
For a further experiment, the target named is Adrenergic β3 (Homo sapiens, UniProt P13945). Nature of the experiment: Biochemical assay Adrenergic β3. The class given is binding. The settings on record: Adrenergic β3, Hu; for Ki: value in parentheses.
Adrenergic β3, sequence (P13945 whole entry): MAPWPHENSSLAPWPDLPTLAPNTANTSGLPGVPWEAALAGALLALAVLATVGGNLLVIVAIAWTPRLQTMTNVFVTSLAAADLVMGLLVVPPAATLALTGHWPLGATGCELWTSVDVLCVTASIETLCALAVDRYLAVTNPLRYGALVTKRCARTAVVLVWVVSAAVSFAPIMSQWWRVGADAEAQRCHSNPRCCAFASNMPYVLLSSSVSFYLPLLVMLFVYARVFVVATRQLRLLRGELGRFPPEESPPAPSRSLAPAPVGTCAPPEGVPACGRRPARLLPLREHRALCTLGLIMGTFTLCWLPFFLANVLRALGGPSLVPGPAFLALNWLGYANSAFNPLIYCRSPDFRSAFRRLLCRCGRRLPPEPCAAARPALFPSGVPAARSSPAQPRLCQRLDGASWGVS
The next experiment has as its target Melanocortin MC5 (Homo sapiens, UniProt P33032). Nature of the experiment: Biochemical assay Melanocortin MC5. The settings on record: Melanocortin MC5, Hu; for Ki: value in parentheses. The format is binding.
The next experiment deals with Opiate δ (Homo sapiens, UniProt P41143). In words: Biochemical assay Opiate δ. Conditions: Hu; for Ki: value in parentheses. The format is binding.
Opiate δ, sequence (P41143 whole entry): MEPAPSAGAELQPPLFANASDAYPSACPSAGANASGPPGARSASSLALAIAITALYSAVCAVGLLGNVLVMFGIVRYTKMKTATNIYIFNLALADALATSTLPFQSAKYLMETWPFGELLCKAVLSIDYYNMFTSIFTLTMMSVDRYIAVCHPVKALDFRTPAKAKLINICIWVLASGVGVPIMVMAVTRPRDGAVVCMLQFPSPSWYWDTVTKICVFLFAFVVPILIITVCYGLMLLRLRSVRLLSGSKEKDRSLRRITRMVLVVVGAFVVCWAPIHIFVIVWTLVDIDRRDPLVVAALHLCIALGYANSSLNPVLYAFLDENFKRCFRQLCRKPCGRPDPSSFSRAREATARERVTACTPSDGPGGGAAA
In another experiment the target is T2, Thromboxane A2 (Homo sapiens, UniProt P21731).
T2 sequence (P21731 1-343): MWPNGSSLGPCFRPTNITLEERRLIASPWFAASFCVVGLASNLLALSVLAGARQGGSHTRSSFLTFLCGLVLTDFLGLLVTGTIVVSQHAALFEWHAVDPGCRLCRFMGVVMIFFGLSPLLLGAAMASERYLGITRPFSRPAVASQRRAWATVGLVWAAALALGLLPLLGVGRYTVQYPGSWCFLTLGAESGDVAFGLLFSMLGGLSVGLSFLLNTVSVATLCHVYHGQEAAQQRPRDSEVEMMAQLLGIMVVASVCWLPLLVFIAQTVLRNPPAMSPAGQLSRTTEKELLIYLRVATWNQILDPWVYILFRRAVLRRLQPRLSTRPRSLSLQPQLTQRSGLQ
In words: Biochemical assay Thromboxane A2. The format is binding. The settings on record: Thromboxane A2, Hu; for Ki: value in parentheses.

Melanocortin MC5, sequence (P33032 whole entry): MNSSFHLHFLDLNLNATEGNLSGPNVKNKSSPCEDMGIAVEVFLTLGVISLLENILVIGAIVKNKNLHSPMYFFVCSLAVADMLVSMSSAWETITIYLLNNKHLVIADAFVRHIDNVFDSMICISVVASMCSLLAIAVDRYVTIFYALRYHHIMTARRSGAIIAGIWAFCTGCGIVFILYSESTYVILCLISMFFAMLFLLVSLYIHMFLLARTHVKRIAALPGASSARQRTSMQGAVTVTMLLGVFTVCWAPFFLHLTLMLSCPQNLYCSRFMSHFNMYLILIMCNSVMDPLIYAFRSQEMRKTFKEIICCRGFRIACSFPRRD
PDE2, sequence (O00408 whole entry): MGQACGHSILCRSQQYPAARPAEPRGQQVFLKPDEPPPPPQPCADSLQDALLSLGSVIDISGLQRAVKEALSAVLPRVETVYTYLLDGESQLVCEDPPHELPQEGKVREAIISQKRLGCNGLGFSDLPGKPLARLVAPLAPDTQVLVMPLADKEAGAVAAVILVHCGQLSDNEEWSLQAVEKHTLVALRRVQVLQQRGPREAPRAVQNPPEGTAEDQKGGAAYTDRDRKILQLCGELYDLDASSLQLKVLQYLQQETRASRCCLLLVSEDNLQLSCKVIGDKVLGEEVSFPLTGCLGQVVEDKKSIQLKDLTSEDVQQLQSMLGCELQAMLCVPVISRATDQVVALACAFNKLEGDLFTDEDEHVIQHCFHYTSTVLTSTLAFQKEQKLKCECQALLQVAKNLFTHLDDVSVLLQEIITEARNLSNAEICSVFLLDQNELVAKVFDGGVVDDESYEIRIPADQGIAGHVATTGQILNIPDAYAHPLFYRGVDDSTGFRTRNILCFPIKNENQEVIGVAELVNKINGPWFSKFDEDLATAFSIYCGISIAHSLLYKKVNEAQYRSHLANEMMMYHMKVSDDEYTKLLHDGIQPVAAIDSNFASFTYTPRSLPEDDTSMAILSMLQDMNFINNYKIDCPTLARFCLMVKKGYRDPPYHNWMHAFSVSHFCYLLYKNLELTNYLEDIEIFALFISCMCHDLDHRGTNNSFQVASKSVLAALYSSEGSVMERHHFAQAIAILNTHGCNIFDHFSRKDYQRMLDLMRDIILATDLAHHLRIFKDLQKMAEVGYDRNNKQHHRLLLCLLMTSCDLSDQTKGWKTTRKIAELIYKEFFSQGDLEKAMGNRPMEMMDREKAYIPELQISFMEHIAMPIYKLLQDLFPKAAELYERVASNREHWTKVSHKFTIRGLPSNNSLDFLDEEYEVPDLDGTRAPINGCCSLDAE

For the compound `CCCc1c(SCCCOc2ccc(C(C)=O)c(OCCCC(=O)O)c2CCC)ccc(C(C)=O)c1O` [Compound 1, 4-[6-acetyl-3-[3-(4-acetyl-3-hydroxy-2-propylphenylthio)propoxy]-2-propylphenoxy]butyric acid], the IC50 against PDE2 worked out at 3.43 µM; in the experiment with PDE4, 0.639 µM; at PDE5 it was 12.7 µM; against PDE6, 2.05 µM; on PLA2-I, 142 µM; on Adrenergic β3 it was 4.63 µM. Also, the values for the IC50 at Melanocortin MC5, against Opiate δ and against Thromboxane A2 were 2.58 µM, 1.04 µM and 3.37 µM, respectively. Also, the Ki on Adrenergic β3 was determined as 3.47 µM; on Melanocortin MC5, 2.42 µM; at Opiate δ, 0.365 µM; on Thromboxane A2, 2.2 µM.

For `CCCc1c(SCCCOc2ccc(C(C)O)c(OCCCC(=O)O)c2CCC)ccc(C(C)=O)c1O` (centres unmarked) [Compound 2], the IC50 against PDE2 came out at 3.38 µM; in the experiment on PDE4, 0.303 µM; at PDE5, 8.47 µM; against PDE6, 1.73 µM; against PLA2-I it was 248 µM; on Adrenergic β3 it was 1.1 µM. Further, the values for the IC50 at Melanocortin MC5, at Opiate δ and against Thromboxane A2 were 1.82 µM, 3.03 µM and 3.89 µM, respectively. For the same compound, the Ki at Adrenergic β3 was found to be 0.821 µM; at Melanocortin MC5, 1.71 µM; at Opiate δ it was 1.07 µM; on Thromboxane A2, 2.54 µM.
